Measurements reported in PMC9511441, “Semisynthetic teicoplanin derivatives with dual antimicrobial activity against SARS-CoV-2 and multiresistant bacteria” (Scientific Reports, 2022).
≈ marks a conversion by molar mass, not a printed value. Read-outs that look alike come from different tables or passages of the source.

Legend:
S. aureus = test: MIC, broth microdilution; type: cell-based; settings: Staphylococcus aureus
From the text: (§1) We determined the minimal inhibitory concentrations (MIC) of the teicoplanin conjugates for a large panel of Gram-positive bacterial strains, using vancomycin, unmodified teicoplanin, dalbavancin and oritavancin as reference compounds. […] The bacterial strains (see Suppl. Table S5 for all details) were selected to achieve maximum diversity of multidrug-resistance and include strains with known mechanisms of resistance to glycopeptides in clinical use. The S. epidermidis and S. haemolyticus strains resistant to dalbavancin and oritavancin were obtained in vitro from clinical isolates sensitive to the glycopeptide antibiotics.

S. haemolyticus = test: MIC, broth microdilution; type: cell-based; settings: Staphylococcus haemolyticus
From the text: as §1

S.pyogenes = test: MIC, broth microdilution; type: cell-based; settings: Streptococcus pyogenes
From the text: as §1

E. faecalis = test: MIC, broth microdilution; type: cell-based; settings: Enterococcus faecalis
From the text: as §1

HEL cells = test: Cytotoxicity in mock-infected HEL cells (MTS); type: cell-based, human; settings: mock-infected HEL cells, MTS, mean of 2–3 tests
S. epidermidis = test: microbe, parasite or virus in culture; type: cell-based; settings: Staphylococcus epidermidis
From the text: as §1

E. faecium = test: microbe, parasite or virus in culture; type: cell-based; settings: Enterococcus faecium
From the text: as §1

Calu-3 cells = test: Cytotoxicity in mock-infected Calu-3 cells (XTT); settings: read-out: CC50, Calu-3 cells, three days
[1] = molecular target: T1, human recombinant cathepsin L (Homo sapiens, UniProt P07711); test: biochemical; type: biochemical
T1 construct: made in house; host or cells: Escherichia coli
T1 sequence (P07711 114-333): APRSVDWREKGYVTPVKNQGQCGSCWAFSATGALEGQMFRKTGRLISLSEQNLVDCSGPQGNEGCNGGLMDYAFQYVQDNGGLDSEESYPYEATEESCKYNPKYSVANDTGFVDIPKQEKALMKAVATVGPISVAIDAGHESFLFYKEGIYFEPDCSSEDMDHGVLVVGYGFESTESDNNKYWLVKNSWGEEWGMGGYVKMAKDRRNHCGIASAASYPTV
Experimental: Cathepsin L inhibition was assessed as reported. Briefly, human recombinant cathepsin L was expressed in Escherichia coli[33]. Enzymatic activity was determined in 100 mM acetate buffer (pH 5.5) containing 0.1% PEG 8000, 5 mM cysteine and 1.5 mM EDTA. The enzyme was first activated in assay buffer for 5 min at 37 °C, after which it was added to the wells of a black microplate containing the Z-Phe-Arg-AMC substrate (Bachem) and compounds. Formation of the fluorescent cleavage product was monitored for 50 min at 37 °C, using a Tecan Infinit M1000 spectrofluorimeter set at 460 nm emission and 380 nm excitation wavelength. All assay mixtures contained 5% (v/v) DMSO and 0.01% Triton X-100 to prevent false-positive inhibition due to formation of compound aggregates. All measurements were performed in triplicate and repeated twice. The relative inhibition was calculated using the equation: Relative inhibition (%) = 100(1 − vi/vo), where vi and vo designate the reaction velocities in the presence and absence of inhibitor, respectively. IC50 values were determined from nine data points at different inhibitor concentrations.

VeroE6 cells = test: Cytotoxicity in mock-infected VeroE6 cells (XTT); type: cell-based, African green monkey; settings: mock-infected Vero E6 cells, three days, XTT
SARS-CoV-2 pseudovirus [2] = test: microbe, parasite or virus in culture; type: cell-based; settings: A549-AT cells, TMPRSS2-mediated uptake
SARS-CoV-2 pseudovirus [3] = test: microbe, parasite or virus in culture; type: cell-based; settings: cathepsin-dependent endosomal pathway
[4] = Cytotoxicity in mock-infected VeroE6 cells (XTT); type: cell-based, African green monkey; settings: African green monkey; for CC50: mock-infected Vero E6 cells, three days, XTT
SARS-CoV-2 = test: microbe, parasite or virus in culture; type: cell-based; settings: for EC50: Severe acute respiratory syndrome coronavirus 2, Vero C1008, 72 h, Vero E6 cells, three days, XTT, read-out: EC50, CPE reduction, SARS-CoV-2 in Vero E6 cells
[5] = tested on: Escherichia coli ATCC 25218; test: MIC against Gram-negative strain; settings: ATCC25218
[6] = tested on: Pseudomonas aeruginosa ATCC 27853; test: MIC against Gram-negative strain; settings: ATCC27853
[7] = tested on: Acinetobacter baumannii ATCC BAA1605; test: MIC against Gram-negative strain; settings: Acinetobacter baumannii, ATCCBAA1605
[8] = tested on: Klebsiella pneumoniae ST258 clone K 160/09; test: MIC against Gram-negative strain; settings: Klebsiella pneumoniae
[9] = read-out: Cathepsin L IC50, pH 5.5, Z-Phe-Arg-AMC substrate

Question: Which results are given for CC(=O)N[C@H]1[C@H](O[C@@H]2c3ccc(c(Cl)c3)Oc3cc4cc(c3O)Oc3ccc(cc3Cl)C[C@H]3NC(=O)[C@H](NC(=O)CCC(F)(F)C(F)(F)C(F)(F)C(F)(F)C(F)(F)C(F)(F)C(F)(F)C(F)(F)F)c5ccc(O)c(c5)Oc5cc(O)cc(c5)[C@H](NC3=O)C(=O)N[C@H]4C(=O)N[C@H]3C(=O)N[C@@H]2C(=O)N[C@H](C(=O)O)c2cc(O)cc(O)c2-c2cc3ccc2O)O[C@H](CO)[C@@H](O)[C@@H]1O [Compound 5]?
Answer: MIC (S. aureus; ATCC 29213 / MSSA, read-out: MIC value, S. aureus ATCC29213, MSSA): 1 µg/mL (≈ 0.533 µM); MIC (S. aureus; MRSA / USA300, read-out: MIC value, S. aureus USA300, CA-MRSA): 4 µg/mL (≈ 2.13 µM); MIC (S. aureus; MRSA, read-out: Average MIC value, S. aureus CA-MRSA, 1 strain): 4 µg/mL (≈ 2.13 µM); MIC (S. aureus; MRSA, read-out: Average MIC value, S. aureus MRSA, 7 strains): 2.57 µg/mL (≈ 1.37 µM); MIC (S. aureus; MRSA, read-out: MIC value, S. aureus 73OL, MRSA): 2 µg/mL (≈ 1.07 µM); MIC (S. aureus; MRSA, read-out: MIC value, S. aureus 214OL, MRSA): 4 µg/mL (≈ 2.13 µM); MIC (S. aureus; MRSA, read-out: MIC value, S. aureus 1041OL, MRSA): 4 µg/mL (≈ 2.13 µM); MIC (S. aureus; MRSA, read-out: MIC value, S. aureus A6918, MRSA): 2 µg/mL (≈ 1.07 µM); MIC (S. aureus; MRSA, read-out: MIC value, S. aureus A6919, MRSA): 2 µg/mL (≈ 1.07 µM); MIC (S. aureus; MRSA, read-out: MIC value, S. aureus Mu50, MRSA): 2 µg/mL (≈ 1.07 µM); MIC (S. aureus; MRSA, read-out: MIC value, S. aureus N315, MRSA): 2 µg/mL (≈ 1.07 µM); MIC (S. aureus; MSSA / NEWMAN, read-out: MIC value, S. aureus Newman, MSSA): 2 µg/mL (≈ 1.07 µM); MIC (S. aureus; MSSA, read-out: Average MIC value, S. aureus MSSA, 4 strains): 1.75 µg/mL (≈ 0.933 µM); MIC (S. aureus; MSSA, read-out: MIC value, S. aureus MSSA476, MSSA): 2 µg/mL (≈ 1.07 µM); MIC (S. aureus; MSSA, read-out: MIC value, S. aureus SA564, MSSA): 2 µg/mL (≈ 1.07 µM); MIC (S. haemolyticus; S. haemolyticus mecA, 6 strains, read-out: Average MIC value): 7 µg/mL (≈ 3.73 µM); MIC (S. haemolyticus; S.haemolyticus DALB_R1, mecA, read-out: MIC value): 8 µg/mL (≈ 4.26 µM); MIC (S. haemolyticus; S.haemolyticus DALB_R2, mecA, read-out: MIC value): 8 µg/mL (≈ 4.26 µM); MIC (S. haemolyticus; S.haemolyticus DALB_R3, mecA, read-out: MIC value): 8 µg/mL (≈ 4.26 µM); MIC (S. haemolyticus; S.haemolyticus DALB_R4, mecA, read-out: MIC value): 8 µg/mL (≈ 4.26 µM); MIC (S. haemolyticus; S.haemolyticus DALB_R5, mecA, read-out: MIC value): 2 µg/mL (≈ 1.07 µM); MIC (S. haemolyticus; S.haemolyticus ORI_R1, mecA, read-out: MIC value): 8 µg/mL (≈ 4.26 µM); MIC (S.pyogenes; read-out: MIC value, S.pyogenes H232): 0.25 µg/mL (≈ 0.133 µM); MIC (S.pyogenes; read-out: MIC value, S.pyogenes H550): 0.25 µg/mL (≈ 0.133 µM); MIC (S.pyogenes; read-out: MIC value, S.pyogenes H578): 0.25 µg/mL (≈ 0.133 µM); MIC (E. faecalis; read-out: Average MIC value, E. faecalis VAN^R,TEI^R/VanA, 1 strain): > 8 µg/mL; MIC (E. faecalis; read-out: Average MIC value, E. faecalis VAN^S, TEI^S, 2 strains): 0.25 µg/mL (≈ 0.133 µM); MIC (E. faecalis; read-out: MIC value, E.faecalis JH2-2): 0.25 µg/mL (≈ 0.133 µM); MIC (E. faecalis; read-out: MIC value, E.faecalis OG1RF): 0.25 µg/mL (≈ 0.133 µM); MIC (E. faecalis; read-out: MIC value, E.faecalis V583, VAN,TEI/VanA): > 8 µg/mL; CC50 (HEL cells): > 100 µM; MIC (S. epidermidis; read-out: Average MIC value, S. epidermidis mecA, 6 strains): 1.4 µg/mL (≈ 0.746 µM); MIC (S. epidermidis; read-out: MIC value, S.epidermidis ORI_R1, mecA): 4 µg/mL (≈ 2.13 µM); MIC (S. epidermidis; read-out: MIC value, S.epidermidis ORI_R2, mecA): 1 µg/mL (≈ 0.533 µM); MIC (S. epidermidis; read-out: MIC value, S.epidermidis ORI_R3, mecA): 2 µg/mL (≈ 1.07 µM); MIC (S. epidermidis; read-out: MIC value, S.epidermidis ORI_R4, mecA): 0.5 µg/mL (≈ 0.266 µM); MIC (S. epidermidis; read-out: MIC value, S.epidermidis TEI_R1, mecA): 0.5 µg/mL (≈ 0.266 µM); MIC (S. epidermidis; read-out: MIC value, S.epidermidis TEI_R2, mecA): 0.5 µg/mL (≈ 0.266 µM); MIC (E. faecium; read-out: Average MIC value, E. faecium VAN^R,TEI^R/VanA, 8 strains): > 8 µg/mL; MIC (E. faecium; read-out: Average MIC value, E. faecium VAN^S, TEI^S, 1 strain): 0.25 µg/mL (≈ 0.133 µM); MIC (E. faecium; read-out: MIC value, E.faecium E335, VAN,TEI,LNZ/VanA): > 8 µg/mL; MIC (E. faecium; read-out: MIC value, E.faecium E355, VAN,TEI,LNZ/VanA): > 8 µg/mL; MIC (E. faecium; read-out: MIC value, E.faecium E832, VAN,TEI,LNZ/VanA): > 8 µg/mL; MIC (E. faecium; read-out: MIC value, E.faecium E854, VAN,TEI,LNZ/VanA): > 8 µg/mL; MIC (E. faecium; read-out: MIC value, E.faecium E859, VAN,TEI,LNZ/VanA): > 8 µg/mL; MIC (E. faecium; read-out: MIC value, E.faecium E1114, VAN,TEI,LNZ/VanA): > 8 µg/mL; MIC (E. faecium; read-out: MIC value, E.faecium E1131, VAN,TEI,LNZ/VanA): > 8 µg/mL; MIC (E. faecium; read-out: MIC value, E.faecium E1132, VAN,TEI,LNZ/VanA): > 8 µg/mL; MIC (E. faecium; read-out: MIC value, E.faecium TX0016): 0.25 µg/mL (≈ 0.133 µM); CC50 (Calu-3 cells): > 100 µM; IC50 [1, 9]: 52 ± 1 µM; CC50 (VeroE6 cells): > 100 µM

Question: For CCCCCCCCOC1C(OC)OC(COCCOCCOCCOCCOCc2cn(C3C(=O)NC4Cc5ccc(c(Cl)c5)Oc5cc6cc(c5O)Oc5ccc(cc5Cl)C(OC5OC(CO)C(O)C(O)C5NC(C)=O)C5NC(=O)C(NC(=O)C6NC(=O)C(NC4=O)c4cc(O)cc(c4)Oc4cc3ccc4O)c3ccc(O)c(c3)-c3c(O)cc(O)cc3C(C(=O)O)NC5=O)nn2)C(O)C1OCCCCCCCC (stereo not drawn) [Compound 1], which CC50 (HEL cells) is on record?
Answer: > 100 µM

Question: What about the “Inhibition of pseudovirus entry in A549-AT cells (in words)” value (SARS-CoV-2 pseudovirus [2]) of the same compound?
Answer: active, though less potent

Question: What about the CC50 (Calu-3 cells) of the same compound?
Answer: 75 ± 9 µM

Question: And the IC50 [1, 9]?
Answer: 49 ± 1 µM

Question: And the CC50 (VeroE6 cells)?
Answer: > 100 µM

Question: What about the “Inhibition of pseudovirus entry in Vero cells (in words)” value (SARS-CoV-2 pseudovirus [3]) of the same compound?
Answer: highly effective

Question: With OCCCC(F)(F)C(F)(F)C(F)(F)C(F)(F)C(F)(F)C(F)(F)C(F)(F)C(F)(F)F [Compound 13] as the compound, how does the CC50 [4] read?
Answer: > 100 µM

Question: And the EC50 (SARS-CoV-2)?
Answer: > 100 µM

Question: What about the “Reduction of the CPE of SARS-CoV-2 in VeroE6 cells (in words)” value (SARS-CoV-2) of the same compound?
Answer: not active

Question: With N=C(N)NCCSCCCOc1cc(C(=O)OCc2ccccc2)cc(OCCCSCCNC(=N)N)c1OCCCSCCNC(=N)N [Compound 24] as the compound, how does the MIC [5] read?
Answer: 3.2 µg/mL (≈ 4.34 µM)

Question: What about the MIC [6] of the same compound?
Answer: 25.6 µg/mL (≈ 34.7 µM)

Question: And the IC50 [1]?
Answer: 18 ± 1 µM

Question: And the CC50 at 3 days [4]?
Answer: 33.2 µM

Question: What about the MIC [7] of the same compound?
Answer: 25.6 µg/mL (≈ 34.7 µM)

Question: And the MIC [8]?
Answer: 128 µg/mL (≈ 173 µM)

Question: What about the EC50 (SARS-CoV-2) of the same compound?
Answer: > 100 µM

Question: What about the “Reduction of the CPE of SARS-CoV-2 in VeroE6 cells (in words)” value (SARS-CoV-2) of the same compound?
Answer: not active

Question: Which results are given for OCCCC(F)(F)C(F)(F)C(F)(F)C(F)(F)C(F)(F)C(F)(F)F [Compound 9]?
Answer: CC50 [4]: > 100 µM; EC50 (SARS-CoV-2): > 100 µM; Reduction of the CPE of SARS-CoV-2 in VeroE6 cells (in words) (SARS-CoV-2): not active
